# Measured values published in patent US20240425589A1, “CYTOTOXICITY-INDUCING THERAPEUTIC AGENT FOR USE IN TREATMENT OF CANCER” (CHUGAI SEIYAKU KABUSHIKI KAISHA, priority 2021, published 2024).
# Assays:
# [1] = test system: CLDN6 expression in NIH:OVCAR-3, COV413A, COV413B, COV362; experiment: CLDN6 expression by FACS after TGF-β1; assay type: cell-based, human; settings: TGF-β1 10 ng/mL, four days, vs untreated
# Experimental: Next, analyses were performed to determine whether TGF-β1 induces CLDN6 expression in other ovarian cancer cell lines. In addition to NIH:OVCAR-3 cells, COV413A cells (ECACC), COV413B (ECACC), and COV362 (ECACC) were seeded on culture plates, and TGF-β1 was added at 10 ng/mL. Four days later, cells were recovered, and CLDN6 expression was analyzed by FACS analysis.
# In the FACS analysis, cells were detached from the culturing flask to produce a cell suspension, these cells were stained using an anti-CLDN6 antibody (CS4135 mIgG1: the heavy-chain and light-chain amino acid sequences are shown in SEQ ID NOs: 210 and 211, respectively, and the heavy-chain and light-chain nucleotide sequences are shown in SEQ ID NOs: 212 and 213, respectively) labeled with Alexa Flour 488 (Alexa Fluor 488 antibody labeling kit, ThermoFisher Scientific), and the amount of CLDN6 expression was analyzed using a flow cytometer (FACSlyric, BD Biosciences). The CS4135 mIgG1 antibody is a chimeric antibody produced by linking the Fc region of a mouse IgG1 to the Fab of the CS4135 antibody.
# [2] = test system: CLDN6 expression in NIH:OVCAR-3; experiment: CLDN6 expression by quantitative PCR after TGF-β1; assay type: cell-based, human; settings: TGF-β1 10 ng/ml, 5 days, vs untreated
# Experimental: Therefore, it was speculated that TGF-β1 induced by treatment with an anticancer agent may affect CLDN6 expression. Accordingly, analyzes were performed to determine whether […] induces CLDN6 expression in the human ovarian cancer cell line (NIH:OVCAR-3, ATCC). Regarding the NIH:OVCAR-3 cells seeded on culture plates, RNAs were purified (RNeasy Mini Kit, QIAGEN) from untreated cells or from cells collected 5 days after addition of TGF-β1 (R & D Systems, 10 ng/ml), and then cDNA synthesis (Superscript IV VILO Master Mix, ThermoFisher) was performed. By using the cDNAs as templates, real-time PCR was performed using CLDN6-specific primers (Power SYBR (registered trademark) Green Master Mix, ThermoFisher) to analyze CLDN6 expression (QuantStudio 12K Flex Real-Time PCR System, ThermoFisher).
# The same primers as those in the above-mentioned Example 21.1 were used as the primers for human CLDN6 and for the primers for human GAPDH used as the internal control.
substance,measurement,setting,value
TGF-β1: TGF-β1 (R & D Systems) added to cells at 10 ng/ml,CLDN6 expression,[1],increased CLDN6 expression
same,CLDN6 expression,[2],Increase in CLDN6 expression was observed
